# Key:
# STAT3 [1] = experiment: Western blot of P-STAT3 (Y705), STAT3, Cyclin D1, Cleaved Caspase-3 in SUM159 cells; assay type: cell-based, human; conditions: SUM159, overnight, vs DMSO
# Description: (§1) (A) MDA-MB-231, SUM159, and 4T1 cell lines were treated with DMSO or LLL12B overnight and the expression levels of P-STAT3 (Y705), STAT3, Cyclin D1, and Cleaved Caspase-3 were analyzed by Western blot. GAPDH served as a protein loading control. (B) MDA-MB-231 cells were treated with DMSO or C188-9 overnight and the expression levels of P-STAT3 (Y705), STAT3, Cyclin D1, and Cleaved Caspase-3 were analyzed by Western blot. (C) MDA-MB-231, SUM159, and 4T1 cells were seeded in a 96-well plate and treated with DMSO or LLL12B for 5 hours and a Caspase-3/7 Fluorescence Assay Kit was used to detect the activation of caspase-3/7. (D) MDA-MB-231, SUM159, and 4T1 cell lines were treated with DMSO or LLL12B for 8-12 hours, and flow cytometry was performed to analyze annexin V and PI staining. The quantification of apoptotic cells was shown in the right panel. ** P<0.01, *** P<0.001 and ****P<0.0001.
# (§2) SiRNA and transfection. STAT3 siRNA and Negative Control siRNA (Cell Signaling Technology, Danvers, MA, USA) were used to knock down STAT3 in MDA-MB-231, SUM159, and 4T1 cell lines. Cells were transfected with STAT3 siRNA or Negative Control siRNA using Lipofectamine RNAiMAX (Invitrogen, Carlsbad, CA, USA) according to the manufacturer's instructions. After 72 hours, cell viability was examined by MTT cell viability assay, and the transfection efficiency was examined by western blot.
# (§3) Western blot. Cells were collected and total protein was extracted using cell lysis buffer (Cell Signaling Technology, Danvers, MA, USA). Protein concentration was determined using the Pierce BCA Protein Assay Kit (Thermo Fisher Scientific, Waltham, MA, USA) according to the manufacturer's instructions. Equal amounts of protein were separated by 10% SDS-PAGE gels and transferred to PVDF membranes. Membranes were blocked in 5% non-fat milk at room temperature and probed with specific antibodies P-STAT3 (Y705), STAT3, Cyclin D1, Cleaved Caspase-3, P-STAT1 (Y701), STAT1, P-ERK, ERK or GAPDH (1:1000, Cell Signaling Technology, Danvers, MA, USA) at 4° C. overnight. […]
# PANC-1 cells = experiment: MTT cell viability assay, PANC-1 cells; assay type: cell-based, human; conditions: PANC-1, 3 days
# Description: (§4) The human pancreatic cancer cell lines HPAC and PANC-1 were seeded and allowed to attach for 24 hours. Then cells were treated with different concentrations of LLL12B for 3 days and the cell viability was determined by MTT cell viability assay.
# STAT3 [2] = biological target: STAT3 (Homo sapiens, UniProt P40763); conditions: refs [25,27,28]; cited from earlier work
# SUM159 cells = experiment: Annexin V and PI flow cytometry, SUM159 cells; assay type: cell-based, human; conditions: SUM159, 8-12 hours, vs DMSO
# Description: Flow cytometry analysis. Flow cytometry was performed to detect cell apoptosis. The APC Annexin V Apoptosis Detection Kit (Biolegend, San Diego, CA, USA) was used for Annexin V staining. Cells were seeded in a 35 mm culture dish at a density of 1×10^5 cells/dish. After overnight incubation, cells were treated with DMSO or LLL12B for 8-12 hours. Cells were harvested and stained with Annexin V-APC and propidium iodide (PI) according to the manufacturer's instructions. After staining, cells were counted using a FACSCanto II flow cytometer (BD Biosciences, San Jose, CA, USA).
# [3] = test system: MDA-MB-231 orthotopic tumor; experiment: Orthotopic mammary fat pad tumor model in vivo; set-up: species or system athymic nude mice
# Description: Orthotopic mammary fat pad tumor model in vivo. All mice were used under guidelines approved by the IACUC of University of Maryland School of Medicine. 6-week-old female athymic nude mice were purchased from The Jackson Laboratory (Bar Harbor, ME, USA). 2.5×10^6 MDA-MB-231 cells in 50 μl matrigel (BD Science, Franklin Lakes, NJ, USA) were inoculated into the 4th mammary fat pads bilaterally. After the tumor volume reached approximately 50 mm^3, mice were randomly divided into two groups (3 mice with 6 tumors in each group). LLL12B (2.5 mg/kg) or DMSO vehicle was administered daily by oral gavage for 28 days. Tumor size was measured by the length (L) and width (W) using a caliper ruler every 2 days. Tumor volume was calculated using 0.52×L×W^2. Body weight was monitored every 2 days. At the end of the experiment, tumors were removed and weighed. Part of the tumor tissue was lysed to detect the expression of P-STAT3 (Y705), STAT3, and Cyclin DI using Western blot analysis.
# Female nude mice were implanted with MDA-MB-231 cells to establish an orthotopic tumor model to further evaluate LLL12B efficacy in vivo. MDA-MB-231 cells were inoculated into the 4th mammary fat pads and tumors were allowed to develop until the volume reached approximately 50 mm^3. Vehicle control or LLL12B (2.5 mg/kg) was administered once daily by oral gavage for 28 days.
# STAT3 [4] = experiment: Western blot of P-STAT3 (Y705), STAT3, Cyclin D1, Cleaved Caspase-3 in 4T1 cells; assay type: cell-based, murine; conditions: 4T1, overnight, vs DMSO
# Description: as §1, §2, §3
# STAT1 = experiment: IFN-γ induced STAT1 phosphorylation, Western blot, MDA-MB-231 cells; assay type: cell-based, human; conditions: pretreated 2 hours, 50 ng/ml IFN-γ 30 minutes
# Description: (A) The chemical structures of LLL12B and LLL12. The carbamate ester bond of LLL12B is hydrolytically cleaved by the tumor-associated plasmin to release LLL12. (B) SUM159 cells were seeded in a 6-well plate and treated with LLL12B for 8 hours. Cells were stained with Phospho-Stat3 (Tyr705) and DAPI (indicated by arrows). Green: P-STAT3 (Y705); Blue: DAPI. T47D (C) and MDA-MB-231 (D) breast cancer cells were pretreated with DMSO or LLL12B in a serum-free medium for 2 hours and stimulated with 50 ng/ml of IL-6, IFN-γ, or EGF for additional 30 minutes. Cells were collected and analyzed by Western blot. GAPDH served as a protein loading control.
# as §3
# HPAC cells = experiment: MTT cell viability assay, HPAC cells; assay type: cell-based, human; conditions: 3 days
# Description: as §4
# [5] = 2.5 mg/kg once daily oral gavage 28 days, vs vehicle
# [6] = Western blot, 2.5 mg/kg oral 28 days
# Chain of STAT3 (Homo sapiens, UniProt P40763) (P40763 whole entry, species assumed): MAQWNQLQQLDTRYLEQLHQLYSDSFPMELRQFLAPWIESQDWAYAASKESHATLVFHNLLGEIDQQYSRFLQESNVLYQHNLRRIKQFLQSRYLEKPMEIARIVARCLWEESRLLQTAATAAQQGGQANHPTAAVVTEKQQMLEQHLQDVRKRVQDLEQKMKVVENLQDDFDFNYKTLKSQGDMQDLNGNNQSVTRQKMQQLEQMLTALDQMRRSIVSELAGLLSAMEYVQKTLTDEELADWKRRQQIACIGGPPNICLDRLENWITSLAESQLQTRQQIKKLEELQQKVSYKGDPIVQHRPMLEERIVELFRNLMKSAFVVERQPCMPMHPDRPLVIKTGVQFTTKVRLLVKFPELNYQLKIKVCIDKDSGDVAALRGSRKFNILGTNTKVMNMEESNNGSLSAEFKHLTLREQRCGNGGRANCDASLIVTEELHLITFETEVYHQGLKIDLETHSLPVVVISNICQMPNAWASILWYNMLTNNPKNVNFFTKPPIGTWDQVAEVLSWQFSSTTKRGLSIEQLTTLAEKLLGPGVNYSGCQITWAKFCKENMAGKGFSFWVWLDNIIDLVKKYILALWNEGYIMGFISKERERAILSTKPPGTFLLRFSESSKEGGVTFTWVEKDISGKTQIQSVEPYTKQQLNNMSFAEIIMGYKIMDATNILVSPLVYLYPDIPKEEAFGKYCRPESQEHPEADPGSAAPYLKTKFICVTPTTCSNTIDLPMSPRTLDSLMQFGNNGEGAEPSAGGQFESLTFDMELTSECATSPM
smiles,measurement,setting,value
CN(C)C(=O)Oc1cccc2c1C(=O)c1cccc(S(N)(=O)=O)c1C2=O [LLL12B],Cyclin D1 expression,STAT3 [1],decreased
same,expression of Cleaved Caspase-3,STAT3 [1],enhanced
same,phosphorylation of STAT3,STAT3 [1],decreased
same,cell viability,PANC-1 cells,significantly inhibits
same,binding to the pTyr705 binding site of STAT3,STAT3 [2],binds directly
same,percentage of apoptotic cells,SUM159 cells,significantly increased
same,body weights,[3]; [5],no obvious reduction
same,tumor volume,[3]; [5],significantly reduced
same,tumor weight,[3]; [5],reduced
same,Cyclin D1 expression in tumor tissues,[3]; [6],suppressed
same,phosphorylation of STAT3 (Y705) in tumor tissues,[3]; [6],suppressed
same,Cyclin D1 expression,STAT3 [4],decreased
same,expression of Cleaved Caspase-3,STAT3 [4],enhanced
same,phosphorylation of STAT3,STAT3 [4],decreased
same,induction of P-STAT1 (Y701) stimulated by IFN-γ,STAT1,did not inhibit
same,cell viability,HPAC cells,significantly inhibits
